Where a name gives a salt, the structure may show the parent alone.
tested on: alpha 1a receptors versus alpha 1b and alpha 1d receptors; assay: Selective Binding Assays: binding to alpha 1a versus alpha 1b and alpha 1d receptors ([125I]-HEAT competition binding); parameters: species or system human; details: alpha 1a versus both alpha 1b and alpha 1d; at least about
Protocol: Membranes prepared from the stably transfected human alpha 1a cell line (ATCC CRL 11140) were used to identify compounds that bind to the human alpha 1a adrenergic receptor. These competition binding reactions (total volume=200 μl) contained 50 mM Tris-HCl pH. 7.4, 5 mM EDTA, 150 mM NaCl, 100 pM [^125 I]-HEAT, membranes prepared from the alpha 1a cell line and increasing amounts of unlabeled ligand. Reactions were incubated at room temperature for one hour with shaking. Reactions were filtered onto Whatman GF/C glass fiber filters with a Inotec 96 well cell harvester. Filters were washed three times with ice cold buffer and bound radioactivity was determined (Ki).
Membranes prepared from stably transfected human alpha 1d and alpha 1b cell lines (ATCC CRL 11138 and CRL 11139, respectively) were used to identify compounds that selectively bind to the human alpha 1a adrenergic receptor. These competition binding reactions (total volume=200 μl) contained 50 mM Tris-HCl pH. 7.4, 5 mM EDTA, 150 mM NaCl, 100 pM [^125 I]-HEAT, membranes prepared from cell lines transfected with the respective alpha 1 subtype expression plasmid and increasing amounts of unlabeled ligand. Reactions were incubated at room temperature for one hour with shaking. Reactions were filtered onto Whatman GF/C glass fiber filters with a Inotec 96 well cell harvester. Filters were washed three times with ice cold buffer and bound radioactivity was determined (Ki).

fold more selective in binding to alpha 1a receptors versus binding to the alpha 1b and alpha 1d receptors	Compound
at least 10 fold	C[C@H](c1ccccc1)N1CCC(c2ccc(F)c(F)c2)N(C(=O)NCCCN2CCC(c3ccccn3)CC2)C1=O (stereo partly drawn) [Example 15 (Table 1, entry 1), 4-(3,4-difluorophenyl)-1-((R)-α-methylbenzyl)-3-[(4'-(2-pyridyl)piperidin-1'-yl)propyl]aminocarbonyltetrahydropyrimidin-2-one]
at least 10 fold	C[C@H](c1ccccc1)N1CCC(c2ccc(F)c(F)c2)N(C(=O)NCCCN2CCC(c3ccccc3C#N)CC2)C1=O (stereo partly drawn) [Example 15 (Table 1, entry 2), 4-(3,4-difluorophenyl)-1-((R)-α-methylbenzyl)-3-[(4'-(2-cyanophenyl)piperidin-1'-yl)propyl]aminocarbonyltetrahydro-pyrimidin-2-one]
at least 10 fold	COc1cc(F)ccc1[C@H]1CC[C@H](N2CC[C@@H](NC(=O)N3C(=O)N([C@H](C)c4ccccc4)CCC3c3ccc(F)c(F)c3)C2)CC1 (stereo partly drawn) [Example 15 (Table 1, entry 5), 3-[[3(R)-1-[trans-4-(2-methoxy-4-fluorophenyl)cyclohexyl]pyrrolidin-3-yl]-aminocarbonyl]-1-((R)-α-methylbenzyl)-4-(3,4-difluorophenyl)pyrimidin-2-one]
at least 10 fold	CN1CCC(c2ccc(F)c(F)c2)N(C(=O)NCCCN2CCC(c3ccc(F)cc3)CC2)C1=O (centres unmarked) [Example 17, 4-(3,4-Difluorophenyl)-1-methyl-3-[(4'-(4-fluorophenyl)piperidin-1'-yl)propyl]aaminocarbonyltetrahydropyrimidin-2-one Hydrochloride]
at least 10 fold	CC1(C)CN(Cc2ccccc2)C(=O)N(C(=O)NCCCN2CCC(c3ccc(F)cc3)CC2)C1c1ccc(F)c(F)c1 [Example 19, (4R)- and (4S)-4-(3,4-Difluorophenyl)-5,5-dimethyl-1-benzyl-3-[(4'-(4-fluorophenyl)piperidin-1'-yl)propyl]aminocarbonyltetrahydropyrimidin-2-one Hydrochloride]

From patent publication US6326372A, “Lactam and cyclic urea derivatives useful as alpha 1a adrenoceptor antagonists” (Merck & Co., Inc., priority 2000, dated 2001)
